Experiment [1] relates to MCF7. Description: Cell cycle arrest in human MCF7 cells assessed as increase in G0/G1 phase accumulation at 50 uM after 16 hrs by FACS analysis. It counts as functional.
For experiment [2], the system named is MCF7. Description: Cell cycle arrest in human MCF7 cells assessed as increase in G2/M phase accumulation at 50 uM after 16 hrs by FACS analysis. It counts as functional. Background: Flow cytometry measures light scatter and fluorescence of single cells or particles in a stream.
Experiment [3] deals with MCF7. Description: Cell cycle arrest in human MCF7 cells assessed as increase in S phase accumulation at 50 uM after 16 hrs by FACS analysis. It counts as functional.
Experiment [4] concerns M21. Description: Antiproliferative activity against human M21 cells. It counts as functional.
For experiment [5], the system named is HT-29. Description: Antiproliferative activity against human HT29 cells. Format: functional.
Experiment [6] deals with M21. Description: Effect on thioredoxin-1 nuclear translocation in human M21 cells at 50 uM by immunocytochemistry analysis. Format: functional, cell-based.
In experiment [7] the test system is MCF7. Description: Antiproliferative activity against human MCF7 cells. It counts as functional.
Experiment [8] concerns M21. Nature of the experiment: Effect on thioredoxin-1 nuclear translocation in human M21 cells at 25 uM after 24 hrs by Western blot analysis. Format: functional, cell-based. (In general: A western blot detects proteins with antibodies after separation by electrophoresis.)
Experiment [9] concerns MCF7. Nature of the experiment: Cell cycle arrest in human MCF7 cells assessed as increase in G0/G1 phase accumulation at 25 uM after 16 hrs by FACS analysis. Format: functional.
The subject of experiment [10] is M21. Description: Effect on thioredoxin-1 nuclear translocation in human M21 cells at 30 uM after 24 hrs by Western blot analysis. It counts as functional, cell-based.
Experiment [11] has as its system MCF7. Nature of the experiment: Cell cycle arrest in human MCF7 cells assessed as increase in G2/M phase accumulation at 25 uM after 16 hrs by FACS analysis. It counts as functional.
Experiment [12] concerns MCF7. Nature of the experiment: Cell cycle arrest in human MCF7 cells assessed as increase in S phase accumulation at 25 uM after 16 hrs by FACS analysis. It counts as functional.
The test system of experiment [13] is MCF7. Description: Antiproliferative activity against human MCF7 cells at 100 uM. It counts as functional, cell-based.
Experiment [14] deals with M21. Nature of the experiment: Antiproliferative activity against human M21 cells at 100 uM. It counts as functional, cell-based.
The subject of experiment [15] is HT-29. Nature of the experiment: Antiproliferative activity against human HT29 cells at 100 uM. It counts as functional, cell-based.
For experiment [16], the system named is MCF7. Nature of the experiment: Cell cycle arrest in human MCF7 cells assessed as increase in G0/G1 phase accumulation at 1 time GI50 after 25 hrs by flow cytometry. Format: functional, cell-based.
In experiment [17] the test system is MCF7. Description: Cell cycle arrest in human MCF7 cells assessed as increase in G0/G1 phase accumulation at 2 times GI50 after 25 hrs by flow cytometry. It counts as functional, cell-based.
In experiment [18] the test system is MCF7. Nature of the experiment: Cell cycle arrest in human MCF7 cells assessed as increase in G0/G1 phase accumulation at 4 times GI50 after 25 hrs by flow cytometry. Format: functional, cell-based.
For experiment [19], the system named is M21. Description: Effect on thioredoxin-1 nuclear translocation in human M21 cells at 50 uM after 24 hrs by Western blot analysis. Format: functional, cell-based.
The subject of experiment [20] is MCF7. Nature of the experiment: Cell cycle arrest in human MCF7 cells assessed as increase in S phase accumulation at 0.1 uM after 16 hrs by FACS analysis. It counts as functional.
Experiment [21] deals with MCF7. Nature of the experiment: Cell cycle arrest in human MCF7 cells assessed as increase in G2/M phase accumulation at 0.1 uM after 16 hrs by FACS analysis. Format: functional.
For experiment [22], the system named is MCF7. Nature of the experiment: Cell cycle arrest in human MCF7 cells assessed as increase in G0/G1 phase accumulation at 0.1 uM after 16 hrs by FACS analysis. Format: functional.
Experiment [23] concerns M21. Description: Effect on thioredoxin-1 nuclear translocation in human M21 cells at 25 uM by immunocytochemistry analysis. It counts as functional, cell-based.
The test system of experiment [24] is MCF7. Description: Cell cycle arrest in human MCF7 cells assessed as increase in G2/M phase accumulation at 1 time GI50 after 25 hrs by flow cytometry. Format: functional, cell-based.
For experiment [25], the system named is MCF7. Nature of the experiment: Cell cycle arrest in human MCF7 cells assessed as increase in G2/M phase accumulation at 4 times GI50 after 25 hrs by flow cytometry. It counts as functional, cell-based.
Experiment [26] has as its system MCF7. Nature of the experiment: Cell cycle arrest in human MCF7 cells assessed as increase in G2/M phase accumulation at 2 times GI50 after 25 hrs by flow cytometry. It counts as functional, cell-based.

18 molecules from ChEMBL document CHEMBL1145584, “Cycloalkyl-substituted aryl chloroethylureas inhibiting cell cycle progression in G0/G1 phase and thioredoxin-1 nuclear translocation” (2008) can be followed below.

Molecules are shown by their SMILES. Activity calls are given as the source filed them. The rule behind the calls is not given here.

Consider `O=C(NCCCl)Nc1cccc(OC2CCCCCC2)c1`, for which the results for the Activity in experiment [1], in experiment [2] and in experiment [3] were 72%, 6% and 22%, respectively. In addition, the GI50 was 20 µM in experiment [4], 10.7 µM in [5] and 21 µM in experiment [7]. Further, the result in experiment [6] was Active.
For the molecule `CC(C)(C)c1ccc(NC(=O)NCCCl)cc1`, the result in experiment [8] and in experiment [10] was inactive. Also, the results for the Activity in experiment [9], in [11] and in experiment [12] were 17%, 58% and 24%, respectively.
With `CCNC(=O)Nc1ccc(C2CCCCC2)cc1`, the Activity in experiment [1] stood at 55%; in experiment [2] it was 22%; in [3], 23%. The result in [13], in [14] and in experiment [15] was inactive.
Take `O=C(NCCCl)Nc1ccc(C2CCCCC2)cc1`: the values for the Activity in experiment [1], in experiment [2] and in [3] were 71%, 13% and 16%, respectively. For the same molecule, the GI50 turned out to be 21 µM in experiment [4], 12.6 µM in [5] and 21 µM in [7]. Moreover, the result in experiment [16], in [17], in experiment [10], in experiment [18], in experiment [6] and in [19] was Active.
In the case of `O=C(NCCCl)Nc1cccc(OC2CCCCC2)c1`, the Activity is 59% in experiment [1], 8% in experiment [2] and 33% in experiment [3]. Moreover, the GI50 in [4] came to 20 µM; in experiment [5] it was 7.9 µM; in [7], 25 µM. Moreover, the outcome in experiment [6] was Active.
Turning to `COc1cc2c(c(OC)c1OC)-c1ccc(OC)c(=O)cc1[C@@H](NC(C)=O)CC2` [COLCHICINE], the Activity was determined as 19% in [20], 62% in [21] and 19% in experiment [22].
Regarding `CC(=O)O[C@H]1C(=O)[C@@]2(C)[C@H]([C@H](OC(=O)c3ccccc3)[C@]3(O)C[C@H](OC(=O)[C@H](O)[C@@H](NC(=O)c4ccccc4)c4ccccc4)C(C)=C1C3(C)C)[C@]1(OC(C)=O)CO[C@@H]1C[C@@H]2O` [PACLITAXEL], the Activity was found to be 11% in experiment [20], 80% in experiment [21] and 9% in experiment [22].
On to `O=C(NCCCl)Nc1cccc(Oc2ccccc2)c1`, for which the Activity in experiment [1] is 44%; in [2] it was 30%; in [3], 26%. The GI50 in [4] was found to be 16 µM; in experiment [5], 5.6 µM; in experiment [7], 24 µM. In addition, in experiment [6], the result was inactive.
As for `O=C(NCCCl)Nc1ccc(OC2CCCC2)cc1`, the Activity in experiment [1] is 72%; in [2], 9%; in [3], 19%. Besides, the GI50 in experiment [4] is 38 µM; in experiment [5], 31 µM; in [7], 49 µM. Moreover, the result in [6] was Active.
In the case of `O=C(NCCCl)Nc1ccc(OC2CCCCC2)cc1`, the values for the Activity in experiment [1], in experiment [2] and in experiment [3] were 57%, 14% and 29%, respectively. The GI50 in [4] worked out at 36 µM; in [5], 23 µM; in experiment [7] it was 45 µM. Besides, in experiment [6], the result was Active.
Take `O=C(NCCCl)Nc1ccc(I)cc1`: the outcome in [23] was Active. Moreover, the Activity was found to be 25% in [9], 42% in experiment [11] and 33% in experiment [12].
For `CCC(C)SSc1ncc[nH]1` (stereo not drawn) [PX-12], the GI50 was 8.3 µM in experiment [4], 25 µM in experiment [5] and 8.3 µM in experiment [7]. The Activity is listed as 29% in experiment [9], 58% in [11] and 13% in experiment [12].
Regarding `O=C(NCCCl)Nc1ccc(Oc2ccccc2)cc1`, in experiment [23], the result was inactive. For the same molecule, the figures for the GI50 in [4], in experiment [5] and in experiment [7] were 5.2 µM, 2.4 µM and 9.1 µM, respectively. For the same molecule, the Activity in [9] was 15%; in experiment [11] it was 65%; in experiment [12] it was 20%.
For `O=C(NCCCl)NC1c2ccccc2-c2ccccc21`, the Activity in experiment [1] stood at 63%; in experiment [2], 8%; in experiment [3], 29%. Moreover, the 50% growth inhibitory concentration (GI50) amounted to 27 µM in [4], 19 µM in experiment [5] and 22 µM in experiment [7]. Besides, in experiment [6], the outcome was Active.
Take `O=C(NCCCl)Nc1ccc(OC2CCCCCC2)cc1`: the Activity in [1] stood at 75%; in experiment [2], 6%; in experiment [3], 19%. Further, the GI50 worked out at 18 µM in experiment [4], 12.5 µM in [5] and 19 µM in experiment [7]. Besides, the result in experiment [6] was Active.
On to `O=C(NCCCl)Nc1ccc2ccccc2c1`, for which the results for the Activity in experiment [1], in experiment [2] and in experiment [3] were 17%, 45% and 38%, respectively. In addition, the results for the GI50 in experiment [4], in experiment [5] and in experiment [7] were 4.1 µM, 1.9 µM and 5.6 µM, respectively. In experiment [6], the result was Active.
Take `O=C(NCCCl)Nc1ccc2c(c1)CCC2`: the result in experiment [24], in [25] and in experiment [26] was Active. For the same molecule, the GI50 in experiment [4] amounted to 8 µM; in experiment [5], 3.6 µM; in experiment [7], 14.1 µM. Further, the Activity in experiment [9] amounted to 31%; in experiment [11] it was 40%; in experiment [12] it was 29%.
For the molecule `O=C(NCCCl)Nc1cccc(OC2CCCC2)c1`, the Activity in experiment [1] was 64%; in experiment [2], 12%; in experiment [3], 24%. For the same molecule, the GI50 turned out to be 22 µM in experiment [4], 9.9 µM in experiment [5] and 35 µM in experiment [7]. For the same molecule, the outcome in experiment [6] was Active.

By GI50 is commonly meant the concentration at which growth is held to half of that of the control. High values mean less potent growth inhibition, low ones more potent growth inhibition.
